Source: US20110098288A1, “SULFONAMIDES AS ZAP-70 INHIBITORS” (priority 2008, published 2011)
Counter-ions that a name gives are not always drawn.

Molecular target: T1, ZAP-70 (Homo sapiens, UniProt P43403)
T1 construct: endogenous in cells; host or cells: cell lysate
T1 sequence (P43403 1-619): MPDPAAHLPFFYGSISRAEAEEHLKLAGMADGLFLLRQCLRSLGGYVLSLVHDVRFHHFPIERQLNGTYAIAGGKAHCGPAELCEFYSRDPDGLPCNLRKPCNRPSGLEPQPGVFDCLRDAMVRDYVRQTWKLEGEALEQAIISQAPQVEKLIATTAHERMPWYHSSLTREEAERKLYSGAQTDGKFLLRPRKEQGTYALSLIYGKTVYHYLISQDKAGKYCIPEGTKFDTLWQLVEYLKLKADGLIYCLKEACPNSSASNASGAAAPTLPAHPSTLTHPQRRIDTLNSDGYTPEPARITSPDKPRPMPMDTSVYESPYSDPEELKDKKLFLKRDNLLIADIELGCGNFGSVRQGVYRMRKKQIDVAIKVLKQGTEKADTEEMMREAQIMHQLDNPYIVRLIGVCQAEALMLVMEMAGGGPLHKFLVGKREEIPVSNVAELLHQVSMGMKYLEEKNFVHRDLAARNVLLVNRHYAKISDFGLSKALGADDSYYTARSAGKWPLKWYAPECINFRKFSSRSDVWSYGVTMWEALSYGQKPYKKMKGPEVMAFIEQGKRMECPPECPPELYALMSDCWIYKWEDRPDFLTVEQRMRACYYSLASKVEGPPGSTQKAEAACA
Test: ZAP-70 kinobeads assay
Type: binding
Conditions: competition with immobilized aminopyrido-pyrimidine ligand 24 in cell lysate; ZAP-70 detected by dot blot
Description: The compounds of the present invention as described in the previous examples can be tested in the ZAP-70 kinobeads assay as described (EP-A 1862802 and WO-A 2007/137867). Briefly, test compounds (at various concentrations) and the affinity matrix with the immobilized aminopyrido-pyrimidine ligand 24 are added to cell lysate aliquots and allowed to bind to the proteins in the lysate sample. After the incubation time the beads with captured proteins are separated from the lysate. Bound proteins are then eluted and the presence ZAP-70 is detected and quantified using a specific antibody in a dot blot procedure and the Odyssey infrared detection system. Conventionally, ZAP-70 kinase activity can be measured using purified or recombinant enzyme in a solution-based assay with protein or peptide substrates (Isakov et al., 1996, J. Biol. Chem. 271(26), 15753-15761; Moffat et al., 1999, Bioorg. Med. Chem. Letters 9, 3351-3356).

Row | SMILES | IC50 [nM]
1 | COc1ccc(Nc2nc(Nc3ccc(OC)c(OC)c3)ncc2Cl)c(NS(C)(=O)=O)c1 [Example 153, N-(2-(5-chloro-2-(3,4-dimethoxyphenylamino)pyrimidin-4-ylamino)-5-methoxyphenyl)methanesulfonamide] | < 100
2 | CCN(c1ccccc1Nc1nc(Nc2cc(C)cc(C)c2)ncc1F)S(C)(=O)=O [Example 155, N-(2-(2-(3,5-dimethylphenylamino)-5-fluoropyrimidin-4-ylamino)phenyl)-N-ethylmethanesulfonamide] | 1000 to 10000
3 | CCN(c1ccccc1Nc1nc(Nc2ccc(OC)c(OC)c2)ncc1F)S(C)(=O)=O [Example 157, N-(2-(2-(3,4-dimethoxyphenylamino)-5-fluoropyrimidin-4-ylamino)phenyl)-N-ethylmethanesulfonamide] | 1000 to 10000
4 | CCN(c1ccccc1Nc1nc(Nc2ccc(OCCN3CCOCC3)cc2)ncc1F)S(C)(=O)=O [Example 159, N-ethyl-N-(2-(5-fluoro-2-(4-(2-morpholinoethoxy)phenylamino)pyrimidin-4-ylamino)phenyl)methanesulfonamide] | 100 to 1000
5 | COc1ccc(Nc2nc(Nc3cc(OC)c(OC)c(OC)c3)ncc2F)c(NS(C)(=O)=O)c1C [Example 163, N-(6-(5-fluoro-2-(3,4,5-trimethoxyphenylamino)pyrimidin-4-ylamino)-3-methoxy-2-methylphenyl)methanesulfonamide] | 100 to 1000
6 | COc1cc(Nc2ncc(F)c(Nc3cc(F)c(F)cc3NS(C)(=O)=O)n2)cc(OC)c1OC [Example 174, N-(4,5-difluoro-2-(5-fluoro-2-(3,4,5-trimethoxyphenylamino)pyrimidin-4-ylamino)phenyl)methanesulfonamide] | 1000 to 10000
7 | COc1ccc(Nc2nc(Nc3ccc(OC)c(OC)c3)ncc2Br)c(NS(C)(=O)=O)c1 [Example 179, N-(2-(5-bromo-2-(3,4-dimethoxyphenylamino)pyrimidin-4-ylamino)-5-methoxyphenyl)methanesulfonamide] | < 100
8 | COc1ccc(Nc2nc(Nc3ccc(OC)c(OC)c3)ncc2F)c(NS(C)(=O)=O)c1 [Example 180, N-(2-(2-(3,4-dimethoxyphenylamino)-5-fluoropyrimidin-4-ylamino)-5-methoxyphenyl)methanesulfonamide] | < 100
9 | COc1cc(Nc2ncc(F)c(Nc3cccc(C)c3N(C)S(C)(=O)=O)n2)cc(OC)c1OC [Example 181, N-(2-(5-fluoro-2-(3,4,5-trimethoxyphenylamino)pyrimidin-4-ylamino)-6-methylphenyl)-N-methylmethanesulfonamide] | 100 to 1000
10 | COc1cc(Nc2ncc(F)c(Nc3ccc(OCCCN4CCCCC4)cc3NS(C)(=O)=O)n2)cc(OC)c1OC [Example 185, N-(2-(5-fluoro-2-(3,4,5-trimethoxyphenylamino)pyrimidin-4-ylamino)-5-(3-(piperidin-1-yl)propoxy)phenyl)methanesulfonamide] | 100 to 1000
11 | COc1cc(Nc2ncc(F)c(Nc3cc(C)cc(C)c3NS(C)(=O)=O)n2)cc(OC)c1OC [Example 186, N-(2-(5-fluoro-2-(3,4,5-trimethoxyphenylamino)pyrimidin-4-ylamino)-4,6-dimethylphenyl)methanesulfonamide] | 1000 to 10000
12 | COc1ccc(Nc2nc(Nc3cc(OC)c(OC)c(OC)c3)ncc2Cl)c(NS(C)(=O)=O)c1F [Example 187, N-(6-(5-chloro-2-(3,4,5-trimethoxyphenylamino)pyrimidin-4-ylamino)-2-fluoro-3-methoxyphenyl)methanesulfonamide] | 100 to 1000
13 | CS(=O)(=O)Nc1ccccc1Nc1nc(Nc2cccc(-n3cnnn3)c2)ncc1F [Example 188, N-(2-(2-(3-(1H-tetrazol-1-yl)phenylamino)-5-fluoropyrimidin-4-ylamino)phenyl)methanesulfonamide] | 1000 to 10000
14 | Cc1nc(-c2cccc(Nc3ncc(F)c(Nc4ccccc4NS(C)(=O)=O)n3)c2)no1 [Example 189, N-(2-(5-fluoro-2-(3-(5-methyl-1,2,4-oxadiazol-3-yl)phenylamino)pyrimidin-4-ylamino)phenyl)methanesulfonamide] | 1000 to 10000
15 | CS(=O)(=O)Nc1ccccc1Nc1nc(Nc2cccc(-c3nnn[nH]3)c2)ncc1F [Example 190, N-(2-(2-(3-(1H-tetrazol-5-yl)phenylamino)-5-fluoropyrimidin-4-ylamino)phenyl)methanesulfonamide] | 1000 to 10000
16 | CS(=O)(=O)Nc1ccccc1Nc1nc(Nc2cccc(-c3cnco3)c2)ncc1F [Example 193, N-(2-(5-fluoro-2-(3-(oxazol-5-yl)phenylamino)pyrimidin-4-ylamino)phenyl)methanesulfonamide] | 100 to 1000
17 | Cc1nnnn1-c1cccc(Nc2ncc(F)c(Nc3ccccc3NS(C)(=O)=O)n2)c1 [Example 194, N-(2-(5-fluoro-2-(3-(5-methyl-1H-tetrazol-1-yl)phenylamino)pyrimidin-4-ylamino)phenyl)methanesulfonamide] | 1000 to 10000

The remaining lines, values ahead:

Row | IC50 [nM] | SMILES
18 | 100 to 1000 | CC(C)OC(=O)COc1ccc(Nc2ncc(Cl)c(Nc3ccccc3NS(C)(=O)=O)n2)cc1 [Example 143, Isopropyl 2-(4-(5-chloro-4-(2-(methylsulfonamido)phenylamino)pyrimidin-2-ylamino)-phenoxy)acetate hydrochloride]
19 | 1000 to 10000 | CCOC(=O)COc1ccc(Nc2ncc(F)c(Nc3ccccc3NS(C)(=O)=O)n2)cc1 [Example 144, Ethyl 2-(4-(5-fluoro-4-(2-(methylsulfonamido)phenylamino)pyrimidin-2-ylamino)phenoxy)acetate hydrochloride]
20 | < 100 | CS(=O)(=O)Nc1ccccc1Nc1nc(Nc2ccc(CC(=O)O)cc2)ncc1Cl [Example 148, 2-(4-(5-chloro-4-(2-(methylsulfonamido)phenylamino)pyrimidin-2-ylamino)phenyl)acetic acid]
21 | 100 to 1000 | CS(=O)(=O)Nc1ccccc1Nc1nc(Nc2cccc(OCC(=O)O)c2)ncc1Cl [Example 149, 2-(3-(5-chloro-4-(2-(methylsulfonamido)phenylamino)pyrimidin-2-ylamino)phenoxy)acetic acid hydrochloride]
22 | 100 to 1000 | CCN(c1ccccc1Nc1nc(Nc2ccc(OC)cc2)ncc1F)S(C)(=O)=O [Example 156, N-ethyl-N-(2-(5-fluoro-2-(4-methoxyphenylamino)pyrimidin-4-ylamino)phenyl)methanesulfonamide]
23 | 1000 to 10000 | Cc1n[nH]c(-c2ccc(Nc3ncc(F)c(Nc4ccccc4NS(C)(=O)=O)n3)cc2)n1 [Example 191, N-(2-(5-fluoro-2-(4-(3-methyl-1H-1,2,4-triazol-5-yl)phenylamino)pyrimidin-4-ylamino)phenyl)methanesulfonamide]
24 | 1000 to 10000 | Cc1nc(-c2ccc(Nc3ncc(F)c(Nc4ccccc4NS(C)(=O)=O)n3)cc2)cs1 [Example 192, N-(2-(5-fluoro-2-(4-(2-methylthiazol-4-yl)phenylamino)pyrimidin-4-ylamino)phenyl)methanesulfonamide]
25 | 1000 to 10000 | CS(=O)(=O)Nc1ccccc1Nc1nc(Nc2ccc(-n3cnnn3)cc2)ncc1F [Example 195, N-(2-(2-(4-(1H-tetrazol-1-yl)phenylamino)-5-fluoropyrimidin-4-ylamino)phenyl)methanesulfonamide]
26 | 1000 to 10000 | CS(=O)(=O)Nc1ccccc1Nc1nc(Nc2ccc(C#N)cc2)ncc1F [Example 196, N-(2-(2-(4-cyanophenylamino)-5-fluoropyrimidin-4-ylamino)phenyl)methanesulfonamide]
27 | 1000 to 10000 | Cc1nc(-c2ccc(Nc3ncc(F)c(Nc4ccccc4NS(C)(=O)=O)n3)cc2)no1 [Example 197, N-(2-(5-fluoro-2-(4-(5-methyl-1,2,4-oxadiazol-3-yl)phenylamino)pyrimidin-4-ylamino)phenyl)methanesulfonamide]
28 | 100 to 1000 | CS(=O)(=O)Nc1ccccc1Nc1nc(Nc2ccc(-n3cncn3)cc2)ncc1F [Example 198, N-(2-(2-(4-(1H-1,2,4-triazol-1-yl)phenylamino)-5-fluoropyrimidin-4-ylamino)phenyl)methanesulfonamide]
29 | 100 to 1000 | Cc1nnnn1-c1ccc(Nc2ncc(F)c(Nc3ccccc3NS(C)(=O)=O)n2)cc1 [Example 199, N-(2-(5-fluoro-2-(4-(5-methyl-1H-tetrazol-1-yl)phenylamino)pyrimidin-4-ylamino)phenyl)methanesulfonamide]
30 | 1000 to 10000 | CS(=O)(=O)Nc1ccccc1Nc1nc(Nc2cccc(C#N)c2)ncc1F [Example 200, N-(2-(2-(3-cyanophenylamino)-5-fluoropyrimidin-4-ylamino)phenyl)methanesulfonamide]
